This assay has as its target T1, Human TRPA1 (Homo sapiens, UniProt O75762).
T1 construct: expressed in transfected cells; host or cells: CHO cells
Nature of the assay: 45Calcium uptake assay: inhibition of AITC induced cellular uptake of radioactive calcium. The conditions noted are these: AITC (30 μM) induced 45Ca uptake, Human TRPA1 expressing CHO cells; for inhibition at 1 µM: 1.0 μM test compound, read-out: Percentage inhibition at 1.0 μM; for inhibition at 10 µM: 10.0 μM test compound, read-out: Percentage inhibition at 10.0 μM; for IC50: read-out: Human IC50 value (range). The class given is cell-based. In outline:
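CHO cells stably expressing human TRPA1 (~50,000/well) preincubated 10 min with compound (0.5% DMSO, medium with 0.1% BSA, 1.8 mM CaCl2), then 30 μM AITC plus 5 μCi/ml 45Ca2+ for 3 min. Lysate radioactivity counted by scintillation; IC50 by nonlinear regression of % maximal uptake.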

The record followed here is patent US9000159B2 (Glenmark Pharmaceuticals, S.A., priority 2009, dated 2015).

A word on the inhibition: it is how much of the control response was suppressed. The IC50 is the midpoint of a concentration-inhibition curve.

T1 sequence (O75762 whole entry): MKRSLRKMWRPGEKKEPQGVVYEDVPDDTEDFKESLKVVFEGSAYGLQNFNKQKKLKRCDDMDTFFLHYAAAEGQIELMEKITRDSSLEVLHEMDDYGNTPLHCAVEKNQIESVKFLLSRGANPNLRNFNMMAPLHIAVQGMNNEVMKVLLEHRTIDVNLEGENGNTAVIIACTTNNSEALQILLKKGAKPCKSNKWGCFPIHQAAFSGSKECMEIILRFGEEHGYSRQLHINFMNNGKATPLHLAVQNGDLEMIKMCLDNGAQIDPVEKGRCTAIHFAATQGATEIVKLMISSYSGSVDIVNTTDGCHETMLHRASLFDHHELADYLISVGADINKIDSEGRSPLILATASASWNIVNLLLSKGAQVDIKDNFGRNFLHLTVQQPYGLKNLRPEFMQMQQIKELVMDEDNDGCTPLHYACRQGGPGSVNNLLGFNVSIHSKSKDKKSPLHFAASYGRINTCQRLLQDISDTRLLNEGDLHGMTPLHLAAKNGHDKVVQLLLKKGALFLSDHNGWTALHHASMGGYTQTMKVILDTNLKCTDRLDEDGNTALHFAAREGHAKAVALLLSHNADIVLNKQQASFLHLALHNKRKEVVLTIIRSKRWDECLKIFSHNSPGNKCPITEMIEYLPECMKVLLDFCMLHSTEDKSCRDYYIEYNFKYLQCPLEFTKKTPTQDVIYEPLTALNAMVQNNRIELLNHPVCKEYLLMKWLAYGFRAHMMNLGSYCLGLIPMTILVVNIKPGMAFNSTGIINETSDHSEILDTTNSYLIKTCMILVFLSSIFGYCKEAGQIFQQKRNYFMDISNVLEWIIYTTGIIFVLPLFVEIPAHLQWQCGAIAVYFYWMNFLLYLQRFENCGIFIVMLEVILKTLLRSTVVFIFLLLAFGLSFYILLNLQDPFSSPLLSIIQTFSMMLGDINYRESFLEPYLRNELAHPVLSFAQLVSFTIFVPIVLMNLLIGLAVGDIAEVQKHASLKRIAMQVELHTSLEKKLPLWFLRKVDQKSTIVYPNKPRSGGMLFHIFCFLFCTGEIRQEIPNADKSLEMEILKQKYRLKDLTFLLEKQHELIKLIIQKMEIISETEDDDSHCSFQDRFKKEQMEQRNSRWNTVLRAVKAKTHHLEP

Consider `CN(C)Cc1cn(CC(=O)Nc2nc(-c3ccc(C(F)(F)F)c(F)c3)cs2)c2c(=O)n(C)c(=O)n(C)c12` [Example 38, N-{4-[3-Fluoro-4-(trifluoromethyl)phenyl]-1,3-thiazol-2-yl}-2-{7-[(dimethylamino)methyl]-1,3-dimethyl-2,4-dioxo-1,2,3,4-tetrahydro-5H-pyrrolo[3,2-d]pyrimidin-5-yl}acetamide], for which the inhibition at 1 µM is 57% and the inhibition at 10 µM was determined as 97.8%.
Take `Cn1c(=O)c2c(cnn2CC(=O)Nc2nc(-c3ccc(OCC(C)(C)C)c(F)c3)cs2)n(C)c1=O` [Example 69, N-{4-[4-(2,2-Dimethylpropoxy)-3-fluorophenyl]-1,3-thiazol-2-yl}-2-(4,6-dimethyl-5,7-dioxo-4,5,6,7-tetrahydro-1H-pyrazolo[4,3-d]pyrimidin-1-yl)acetamide]: the inhibition at 1 µM was found to be 97.3%, the inhibition at 10 µM turned out to be 99.8% and the IC50 is under 50 nM.
The matching figures for `Cn1nc2c(c1CC(=O)Nc1nc(-c3ccc(F)c(C(F)(F)F)c3F)cs1)c(=O)n(C)c(=O)n2C` [Example 63, N-{4-[2,4-Difluoro-3-(trifluoromethyl)phenyl]-1,3-thiazol-2-yl}-2-(2,5,7-trimethyl-4,6-dioxo-4,5,6,7-tetrahydro-2H-pyrazolo[3,4-d]pyrimidin-3-yl)acetamide]: 95.1%, 99.7% and under 50 nM.
The matching figures for `Cn1nc2c(c1CC(=O)Nc1nc(-c3cccc(C(F)(F)F)c3)cs1)c(=O)n(C)c(=O)n2C` [Example 48, N-{4-[3-(Trifluoromethyl)phenyl]-1,3-thiazol-2-yl}-2-(2,5,7-trimethyl-4,6-dioxo-4,5,6,7-tetrahydro-2H-pyrazolo[3,4-d]pyrimidin-3-yl)acetamide]: 92.8%, 97.5% and 50 to 100 nM.
As to `Cn1c(=O)c2c(ccn2CC(=O)Nc2nc(-c3ccc(Cl)c(Cl)c3Cl)cs2)n(C)c1=O` [Example 5, 2-(1,3-Dimethyl-2,4-dioxo-1,2,3,4-tetrahydro-5H-pyrrolo[3,2-d]pyrimidin-5-yl)-N-[4-(2,3,4-trichlorophenyl)-1,3-thiazol-2-yl]acetamide], the inhibition at 1 µM is 55.3% and the inhibition at 10 µM was determined as 82.3%.
The matching figures for `Cn1c(=O)c2c(ccn2CC(=O)Nc2nc(-c3cc(F)c(OCc4ccc(C(F)(F)F)cc4)c(F)c3)cs2)n(C)c1=O` [Example 21, 2-(1,3-Dimethyl-2,4-dioxo-1,2,3,4-tetrahydro-5H-pyrrolo[3,2-d]pyrimidin-5-yl)-N-{4-[3,5-difluoro-4-[4-(trifluoromethyl)benzyloxy]phenyl)-1,3-thiazol-2-yl}acetamide]: 11.2% and 16.2%.
In the case of `Cn1c(=O)c2c(ccn2CC(=O)Nc2nc(-c3cc(F)c(OCC(F)(F)F)c(F)c3)cs2)n(C)c1=O` [Example 11, N-{4-[3,5-Difluoro-4-(2,2,2-trifluoroethoxy)phenyl]-1,3-thiazol-2-yl}-2-(1,3-dimethyl-2,4-dioxo-1,2,3,4-tetrahydro-5H-pyrrolo[3,2-d]pyrimidin-5-yl)acetamide], the inhibition at 1 µM was 96.3%, the inhibition at 10 µM came out at 98.1% and the IC50 was under 50 nM.
As to `Cn1c(=O)c2c(ccn2CC(=O)Nc2nc(-c3cc(F)c(OCC4CC4)c(F)c3)cs2)n(C)c1=O` [Example 17, 2-(1,3-Dimethyl-2,4-dioxo-1,2,3,4-tetrahydro-5H-pyrrolo[3,2-d]pyrimidin-5-yl)-N-{4-[4-(cyclopropylmethoxy)-3,5-difluorophenyl]-1,3-thiazol-2-yl}acetamide], the inhibition at 1 µM was 33.5% and the inhibition at 10 µM stood at 49.9%.
For the molecule `Cn1nc2c(c1CC(=O)Nc1nc(-c3ccc(F)c(OC(F)(F)F)c3)cs1)c(=O)n(C)c(=O)n2C` [Example 60, N-{4-[4-Fluoro-3-(trifluoromethoxy)phenyl]-1,3-thiazol-2-yl}-2-(2,5,7-trimethyl-4,6-dioxo-4,5,6,7-tetrahydro-2H-pyrazolo[3,4-d]pyrimidin-3-yl)acetamide], the inhibition at 1 µM was found to be 93.4%, the inhibition at 10 µM turned out to be 97.2% and the IC50 is under 50 nM.
The matching figures for `Cn1nc2c(c1CC(=O)Nc1nc(-c3ccc(C(F)(F)F)c(F)c3)cs1)c(=O)n(C)c(=O)n2C` [Example 54, N-[4-(3-Fluoro-4-trifluoromethylphenyl)-1,3-thiazol-2-yl]-2-(2,5,7-trimethyl-4,6-dioxo-4,5,6,7-tetrahydro-2H-pyrazolo[3,4-d]pyrimidin-3-yl)acetamide]: 97.7%, 99.6% and under 50 nM.
For `Cn1c(=O)c2c(ccn2CC(=O)Nc2nc(-c3cc(F)c(OCCC(F)(F)F)c(F)c3)cs2)n(C)c1=O` [Example 12, N-{4-[3,5-Difluoro-4-(3,3,3-trifluoropropoxy)phenyl]-1,3-thiazol-2-yl}-2-(1,3-dimethyl-2,4-dioxo-1,2,3,4-tetrahydro-5H-pyrrolo[3,2-d]pyrimidin-5-yl)acetamide], the inhibition at 1 µM was 97.4%, the inhibition at 10 µM came out at 96% and the IC50 is under 50 nM.
Consider `Cn1nc2c(c1CC(=O)Nc1nc(-c3ccc(F)c(F)c3)cs1)c(=O)n(C)c(=O)n2C` [Example 51, N-[4-(3,4-Difluorophenyl)-1,3-thiazol-2-yl]-2-(2,5,7-trimethyl-4,6-dioxo-4,5,6,7-tetrahydro-2H-pyrazolo[3,4-d]pyrimidin-3-yl)acetamide], for which the inhibition at 1 µM was determined as 57.5% and the inhibition at 10 µM turned out to be 79.7%.
With `Cn1c(=O)c2c(CC(=O)Nc3nc(-c4ccc(F)c(C(F)(F)F)c4F)cs3)cn(C)c2n(C)c1=O` [Example 43, N-{4-[2,4-Difluoro-3-(trifluoromethyl)phenyl]-1,3-thiazol-2-yl}-2-(1,3,7-trimethyl-2,4-dioxo-2,3,4,7-tetrahydro-1H-pyrrolo[2,3-d]pyrimidin-5-yl)acetamide], the inhibition at 1 µM turned out to be 30.1% and the inhibition at 10 µM was determined as 41.6%.
Consider `Cn1nc2c(c1CC(=O)Nc1nc(-c3ccc(F)c(C(F)(F)F)c3)cs1)c(=O)n(C)c(=O)n2C` [Example 53, N-{4-[4-Fluoro-3-(trifluoromethyl)phenyl]-1,3-thiazol-2-yl}-2-(2,5,7-trimethyl-4,6-dioxo-4,5,6,7-tetrahydro-2H-pyrazolo[3,4-d]pyrimidin-3-yl)acetamide], for which the inhibition at 1 µM amounted to 97.2%, the inhibition at 10 µM was 98.6% and the IC50 is under 50 nM.
As for `Cn1nc2c(c1CC(=O)Nc1nc(-c3ccc(C(F)(F)F)c(F)c3)c[nH]1)c(=O)n(C)c(=O)n2C` [Example 85, N-{4-[3-Fluoro-4-(trifluoromethyl)phenyl]-1H-imidazol-2-yl]-2-(2,5,7-trimethyl-4,6-dioxo-4,5,6,7-tetrahydro-2H-pyrazolo[3,4-d]pyrimidin-3-yl)acetamide], the inhibition at 1 µM is 44.1% and the inhibition at 10 µM is 78.2%.
Regarding `Cn1c(=O)c2c(ccn2CC(=O)Nc2nc(-c3cc(F)c(OC(F)F)c(F)c3)cs2)n(C)c1=O` [Example 10, N-{4-[4-(Difluoromethoxy)-3,5-difluorophenyl]-1,3-thiazol-2-yl}-2-(1,3-dimethyl-2,4-dioxo-1,2,3,4-tetrahydro-5H-pyrrolo[3,2-d]pyrimidin-5-yl)acetamide], the inhibition at 1 µM turned out to be 91%, the inhibition at 10 µM came out at 95.3% and the IC50 fell in the range of 50 to 100 nM.
With `Cn1c(=O)c2c(ccn2CC(=O)Nc2nc(-c3ccc(F)cc3F)cs2)n(C)c1=O` [Example 1, N-[4-(2,4-Difluorophenyl)-1,3-thiazol-2-yl]-2-(1,3-dimethyl-2,4-dioxo-1,2,3,4-tetrahydro-5H-pyrrolo[3,2-d]pyrimidin-5-yl)acetamide], the inhibition at 1 µM was determined as 23.1% and the inhibition at 10 µM was found to be 21.4%.
In the same order, the values of `Cn1c(=O)c2c(c(Br)cn2CC(=O)Nc2nc(-c3ccc(C(F)(F)F)c(F)c3)cs2)n(C)c1=O` [Example 37, 2-(7-Bromo-1,3-dimethyl-2,4-dioxo-1,2,3,4-tetrahydro-5H-pyrrolo[3,2-d]pyrimidin-5-yl)-N-{4-[3-fluoro-4-(trifluoromethyl)phenyl]-1,3-thiazol-2-yl}acetamide] are 52.9% and 95.4%.
As to `Cn1c(=O)c2c(ccn2CC(=O)Nc2nc(-c3cc(F)c(OCc4ccccc4C(F)(F)F)c(F)c3)cs2)n(C)c1=O` [Example 20, 2-(1,3-Dimethyl-2,4-dioxo-1,2,3,4-tetrahydro-5H-pyrrolo[3,2-d]pyrimidin-5-yl)-N-{4-[3,5-difluoro-4-[2-(trifluoromethyl)benzyloxy]phenyl)-1,3-thiazol-2-yl}acetamide], the inhibition at 1 µM was determined as 22.6% and the inhibition at 10 µM amounted to 67.7%.
As to `Cc1cc2c(c(=O)n(C)c(=O)n2C)n1CC(=O)Nc1nc(-c2ccc(F)c(C(F)(F)F)c2F)cs1` [Example 25], the inhibition at 1 µM is 68.3% and the inhibition at 10 µM worked out at 94.8%.
Regarding `Cc1cc2c(c(=O)n(C)c(=O)n2C)n1CC(=O)Nc1nc(-c2cc(F)c(OCC(F)(F)F)c(Cl)c2)cs1` [Example 30], the inhibition at 1 µM was found to be 93.6%, the inhibition at 10 µM was determined as 100% and the IC50 was under 50 nM.
As to `Cc1cc2c(c(=O)n(C)c(=O)n2C)n1CC(=O)Nc1nc(-c2ccc(OCC(C)(C)C)c(Cl)c2)cs1` [Example 32, N-{4-[3-Chloro-4-(2,2-dimethylpropoxy)phenyl]-1,3-thiazol-2-yl}-2-(1,3,6-trimethyl-2,4-dioxo-1,2,3,4-tetrahydro-5H-pyrrolo[3,2-d]pyrimidin-5-yl)acetamide], the inhibition at 1 µM was determined as 92.8%, the inhibition at 10 µM was 96.3% and the IC50 was under 50 nM.
